Measured values from patent US12012373B2, “Cannabinoid derivatives” (CANOPY GROWTH CORPORATION, priority 2019, dated 2024).

How the values were obtained:
human CB2 receptor = target: T1, human CB2 receptor (Homo sapiens, UniProt P34972); assay: CB2 radioligand competitive binding assay ([3H]CP 55,940 displacement); details: for IC50: [3H]CP 55,940 displacement, CHO-K1 membranes expressing human CB2 receptor; for Selectivity CB2: fold difference in binding between CB1 and CB2, shown in the column of the receptor with higher affinity, 1.00 in both = about same affinity
T1 construct: membranes prepared in house
T1 sequence (P34972 whole entry): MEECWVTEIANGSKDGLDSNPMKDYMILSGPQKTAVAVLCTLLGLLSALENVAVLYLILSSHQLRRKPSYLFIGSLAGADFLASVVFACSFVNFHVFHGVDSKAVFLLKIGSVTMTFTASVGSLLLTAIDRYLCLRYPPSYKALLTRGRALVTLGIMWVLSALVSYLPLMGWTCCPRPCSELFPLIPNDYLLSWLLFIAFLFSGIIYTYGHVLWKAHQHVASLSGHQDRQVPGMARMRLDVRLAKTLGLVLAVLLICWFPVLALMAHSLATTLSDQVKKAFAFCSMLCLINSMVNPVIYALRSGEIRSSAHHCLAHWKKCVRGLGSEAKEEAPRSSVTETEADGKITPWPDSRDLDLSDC
Method: Compounds of the present disclosure were tested for CB1 receptor binding affinity and for CB2 receptor binding affinity. As used herein, “binding affinity” is represented by the IC50 value, which was experimentally determined as described herein. The lower the IC50 value the higher the binding affinity. A compound of the present disclosure may be said to have “binding selectivity” If it has a higher binding affinity for one receptor compared to the other.
The membranes were prepared from CHO-K1 (Chinese hamster ovary) cells stably transfected with the human CB2 receptor (Cat. #ES-111-C; Perkin Elmer, Boston, MA). The cells were grown adherently and maintained in Ham's F12 medium containing 10% fetal bovine serum (FBS), penicillin, streptomycin and geneticin (G418) at 37° C. in a humid atmosphere of 5% CO2 following the manufacturer's Instructions.
For membrane preparation the cells were washed with PBS and scraped off the plates in cold homogenization buffer (25 mM HEPES (pH 7.4), 2 mM EDTA) containing protease inhibitor cocktail (Sigma Cat. #P8340). The cell suspension was homogenized with a Pro-PK-01200D Polytron Homogenizer (Pro Scientific) and then centrifuged for 30 min at 120,000×g. The supernatant was discarded and the pellet was re-suspended in the homogenization buffer and stored at −80° C. until the time of use.
In this experiment, 3H radiolabeled CP 55,940, i.e. [3H]CP 55,940 (Perkin Elmer, Boston, MA), was used as a radioligand for the CB2 receptor to determine the binding affinity of compounds for the CB2 receptor (Scheme 8; above).
The competition binding experiments (single dose and dose-response) were performed by incubating 0.6 nM of [3H]CP55,940 (specific activity 101 Ci/mmol, Perkin Elmer) and different concentrations of compounds disclosed herein with membranes prepared as above from CHO-K1 cells expressing human CB2 receptor (1 μg of protein/well), 50 mM Tris-HCl (pH 7.4), 5 mM MgCl2, 1 mM CaCl2, and 2 mg/mL BSA.
For the single dose experiments, the compound stocks (usually 10 mM in DMSO) were diluted to working stocks in the binding buffer to give the final compound concentrations of 10 μM and 1 μM. For the dose-response experiments the test compounds were sequentially diluted to provide the desired concentration range for the IC50 determination. In each case the compounds were pre-incubated with the membrane for 20 min, before adding the radioligand.
After incubation with the radioligand for 60 min at 37° C., the incubation was terminated by rapid filtration of assay mixture through MultiScreen®HTS^+ 96-well filter plates (Millipore, Cat. #MSFCNXB), pre-soaked for 60 min with 50 mM Tris-HCl (pH 7.4) containing 0.33% polyethylenimine (PEI). The nonspecific binding (NSB) was determined in the presence of 10 μM unlabeled CP55,940. After drying the filter plate at 50° C. for at least 60 min, the filter-bound radioactivity was determined by scintillation spectrometry using the 1450 MicroBeta Plate Counter (Perkin Elmer, Boston, MA). From the dose-response experiments, the IC50 values were determined (see Table 1, CB2 IC50).

human CB1 receptor [1] = target: T2, human CB1 receptor (Homo sapiens, UniProt P21554); assay: biochemical; format: binding; parameters: membranes prepared in house; details: for Selectivity CB1: fold difference in binding between CB1 and CB2, shown in the column of the receptor with higher affinity, 1.00 in both = about same affinity
T2 sequence (P21554 whole entry): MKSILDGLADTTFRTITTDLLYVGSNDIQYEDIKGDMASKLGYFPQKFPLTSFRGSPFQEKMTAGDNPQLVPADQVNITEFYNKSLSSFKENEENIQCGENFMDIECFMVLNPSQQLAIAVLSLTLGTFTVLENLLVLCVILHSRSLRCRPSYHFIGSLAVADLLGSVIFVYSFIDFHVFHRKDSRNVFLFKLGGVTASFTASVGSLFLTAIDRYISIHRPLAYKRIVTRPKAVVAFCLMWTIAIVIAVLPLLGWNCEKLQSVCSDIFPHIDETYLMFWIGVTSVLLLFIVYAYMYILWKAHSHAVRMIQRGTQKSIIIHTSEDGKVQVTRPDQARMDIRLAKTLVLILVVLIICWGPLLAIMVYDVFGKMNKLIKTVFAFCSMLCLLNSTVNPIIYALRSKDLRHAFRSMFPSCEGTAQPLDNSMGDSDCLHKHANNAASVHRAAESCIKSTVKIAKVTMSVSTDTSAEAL

human CB1 receptor [2] = target: T2, human CB1 receptor; assay: PathHunter β-Arrestin functional assay, CB1 receptor, antagonist mode; format: cell-based; parameters: membranes prepared in house; details: for inhibition at 4 µM: read-out: relative inhibition in comparison to rimonabant

Row | SMILES | IC50 (human CB2 receptor) [µM] | Selectivity CB2 (human CB2 receptor) [fold] | IC50 (human CB1 receptor [1]) [µM] | Selectivity CB1 (human CB1 receptor [1]) [fold] | IC50 (human CB1 receptor [2]) [µM] | inhibition at 4 µM (human CB1 receptor [2]) [%]
1 | C=C(C)[C@@H]1CCC(C)=C[C@H]1c1c(O)cc(CCCCC)c(S(=O)(=O)N(C)C)c1O (stereo in doubt) [Compound 21d, 2,6-dihydroxy-N,N,5′-trimethyl-4-pentyl-2′-(prop-1-en-2-yl)-1′,2′,3′,4′-tetrahydro-[1,1′-biphenyl]-3-sulfonamide] | 0.1 to 0.99 | 1.41 | 0.1 to 0.99 | – | – | –
2 | C=C(C)[C@@H]1CCC(C)=C[C@H]1c1c(O)cc(CCCCC)c(S(=O)(=O)NC(C)C)c1O (stereo in doubt) [Compound 23d, 2,6-dihydroxy-N-isopropyl-5′-methyl-4-pentyl-2′-(prop-1-en-2-yl)-1′,2′,3′,4′-tetrahydro-[1,1′-biphenyl]-3-sulfonamide] | 0.1 to 0.99 | 2.56 | 1 to 5 | – | – | –
3 | C=C(C)[C@@H]1CCC(C)=C[C@H]1c1c(O)cc(CCCCC)c(S(C)(=O)=O)c1O [Compound 3d, 5′-methyl-3-(methylsulfonyl)-4-pentyl-2′-(prop-1-en-2-yl)-1′,2′,3′,4′-tetrahydro-[1,1′-biphenyl]-2,6-diol] | 1 to 5 | 2.00 | 1 to 5 | – | – | –
4 | CCCCCc1cc(O)c(C2C=C(C)CCC2)c(O)c1S(N)(=O)=O (stereo not shown) [Compound 19c, 2,6-dihydroxy-5′-methyl-4-pentyl-1′,2′,3′,4′-tetrahydro-[1,1′-biphenyl]-3-sulfonamide] | 1 to 5 | 1.00 | 1 to 5 | 1.00 | – | –
5 | CCCCCc1cc(O)c(C2C=C(C)CCC2)c(O)c1S(=O)(=O)NC1CC1 (stereo not shown) [Compound 22c, N-cyclopropyl-2,6-dihydroxy-5′-methyl-4-pentyl-1′,2′,3′,4′-tetrahydro-[1,1′-biphenyl]-3-sulfonamide] | 0.1 to 0.99 | 11.59 | 1 to 5 | – | 0.775 to 3 | 11 to 79
6 | C=C(C)[C@@H]1CCC(C)=C[C@H]1c1c(O)cc(CCCCC)c(S(=O)(=O)NC2CC2)c1O [Compound 22d, N-Cyclopropyl-2,6-Dihydroxy-5′-Methyl-4-Pentyl-2′-(Prop-1-En-2-Yl)-1′,2′,3′,4′-Tetrahydro-[1,1′-Biphenyl]-3-Sulfonamide] | 1 to 5 | 1.52 | 1 to 5 | – | 0.775 to 3 | 11 to 79
7 | CCCCCc1cc(O)c(C2C=C(C)CCC2)c(O)c1S(=O)(=O)Nc1ccccc1 (stereo not shown) [Compound 24c, 2,6-dihydroxy-5′-methyl-4-pentyl-N-phenyl-1′,2′,3′,4′-tetrahydro-[1,1′-biphenyl]-3-sulfonamide] | 0.1 to 0.99 | 3.60 | 1 to 5 | – | – | –
8 | C=C(C)[C@@H]1CCC(C)=C[C@H]1c1c(O)cc(CCCCC)c(S(=O)(=O)Nc2ccccc2)c1O [Compound 24d, 2,6-dihydroxy-5′-methyl-4-pentyl-N-phenyl-2′-(prop-1-en-2-yl)-1′,2′,3′,4′-tetrahydro-[1,1′-biphenyl]-3-sulfonamide] | 1 to 5 | 1.67 | 1 to 5 | – | – | –
9 | CCCCCc1cc(O)c(C2C=C(C)CCC2)c(O)c1S(=O)(=O)NCc1ccccc1 (stereo not shown) [Compound 25c, N-benzyl-2,6-dihydroxy-5′-methyl-4-pentyl-1′,2′,3′,4′-tetrahydro-[1,1′-biphenyl]-3-sulfonamide] | 0.1 to 0.99 | 1.50 | 0.1 to 0.99 | – | – | –
10 | C=C(C)[C@@H]1CCC(C)=C[C@H]1c1c(O)cc(CCCCC)c(S(=O)(=O)NCc2ccccc2)c1O [Compound 25d, N-benzyl-2,6-dihydroxy-5′-methyl-4-pentyl-2′-(prop-1-en-2-yl)-1′,2′,3′,4′-tetrahydro-[1,1′-biphenyl]-3-sulfonamide] | 1 to 5 | 2.00 | 1 to 5 | – | – | –
11 | CCCCCc1cc(O)c(C2C=C(C)CCC2)c(O)c1S(=O)(=O)N1CCOCC1 (stereo not shown) [Compound 28c, 5′-methyl-3-(morpholinosulfonyl)-4-pentyl-1′,2′,3′,4′-tetrahydro-[1,1′-biphenyl]-2,6-diol] | 0.1 to 0.99 | – | – | – | 0.775 to 3 | 11 to 79
12 | C=C(C)[C@@H]1CCC(C)=C[C@H]1c1c(O)cc(CCCCC)c(S(=O)(=O)N2CCOCC2)c1O [Compound 28d, 5′-Methyl-3-(Morpholinosulfonyl)-4-Pentyl-2′-(Prop-1-En-2-Yl)-1′,2′,3′,4′-Tetrahydro-[1,1′-Biphenyl]-2,6-Diol] | < 0.1 | 8.20 | 0.1 to 0.99 | – | – | –
13 | C=C(C)[C@@H]1CCC(C)=C[C@H]1c1c(O)cc(CCCCC)c(S(=O)(=O)N(CC)CC)c1O [Compound 62d, N,N-Diethyl-2,6-Dihydroxy-5′-Methyl-4-Pentyl-2′-(Prop-1-En-2-Yl)-1′,2′,3′,4′-Tetrahydro-[1,1′-Biphenyl]-3-Sulfonamide] | 0.1 to 0.99 | 6.29 | 0.1 to 0.99 | – | 0.775 to 3 | 11 to 79
14 | C=C(C)[C@@H]1CCC(C)=C[C@H]1c1c(O)cc(CCCCC)c(S(=O)(=O)N(CCO)CCBr)c1O [Compound 63d, N-(2-bromoethyl)-2,6-dihydroxy-N-(2-hydroxyethyl)-5′-methyl-4-pentyl-2′-(prop-1-en-2-yl)-1′,2′,3′,4′-tetrahydro-[1,1′-biphenyl]-3-sulfonamide] | 1 to 5 | 1.00 | 1 to 5 | 1.00 | – | –
15 | C=C(C)[C@@H]1CCC(C)=C[C@H]1c1c(O)cc(CCCCC)c(S(=O)(=O)OCC(F)(F)F)c1O [Compound 64d, 2,2,2-trifluoroethyl-2,6-dihydroxy-5′-methyl-4-pentyl-2′-(prop-1-en-2-yl)-1′,2′,3′,4′-tetrahydro-[1,1′-biphenyl]-3-sulfonate] | 0.1 to 0.99 | – | 0.1 to 0.99 | 2.00 | – | –
16 | C=C(C)[C@@H]1CCC(C)=C[C@H]1c1c(O)cc(CCC)c(S(=O)(=O)N(C)C)c1O [Compound 67d, 2,6-dihydroxy-N,N,5′-trimethyl-2′-(prop-1-en-2-yl)-4-propyl-1′,2′,3′,4′-tetrahydro-[1,1′-biphenyl]-3-sulfonamide] | 1 to 5 | 3.08 | 1 to 5 | – | – | –
17 | C=C(C)[C@@H]1CCC(C)=C[C@H]1c1c(O)cc(CCC)c(S(=O)(=O)NC(C)C)c1O [Compound 68d, 2,6-dihydroxy-N-isopropyl-5′-methyl-2′-(prop-1-en-2-yl)-4-propyl-1′,2′,3′,4′-tetrahydro-[1,1′-biphenyl]-3-sulfonamide] | 1 to 5 | 1.74 | 1 to 5 | – | – | –
18 | CCCCCc1cc(O)c(C2C=C(C)CCC2)c(O)c1C(=O)NS(=O)(=O)c1cccnc1 (stereo not shown) [Compound 71c, 2,6-dihydroxy-5′-methyl-4-pentyl-N-(pyridin-3-ylsulfonyl)-1′,2′,3′,4′-tetrahydro-[1,1′-biphenyl]-3-carboxamide] | 0.1 to 0.99 | – | 0.1 to 0.99 | 1.14 | 0.775 to 3 | 11 to 79
